Experimental data published in US12543736B2, “Herbicidal compositions comprising mesotrione” (BASF SE, priority 2024, dated 2026).

Key:
Assay type in all cases: in vivo
Kochia scoparia = assay: Example 1 post-emergence greenhouse trial, KCHSC; details: growth stage 19, 21 DAT
Experimental: In the examples below, using the method of S. R. Colby (1967) “Calculating synergistic and antagonistic responses of herbicide combinations”, Weeds 15, p. 22ff., the value E, which is expected if the activity of the individual active compounds is only additive, was calculated: [formula] • where • X=percent activity using active herbicide A at an application rate a; • Y=percent activity using active herbicide B (e.g. mesotrione) at an application rate b; • E=expected activity (in %) by A+B at application rates a+b. If the value found experimentally is higher than the value E calculated according to Colby, a synergistic effect is present. The culture containers used were plastic pots containing loamy sand with approximately 3.0% of humus as substrate. The seeds of the test plants were sown separately for each species. For the post-emergence treatment, the test plants were grown to a plant height of from 3 to 15 cm, depending on the plant habit, and only then treated with the active compounds which had been suspended or emulsified in water. To this end, the test plants were either sown directly, and grown in the same containers, or they were first grown separately as seedlings and transplanted into the test containers a few days prior to treatment. Depending on the species, the plants were kept at 10-25° C. and 20-35° C., respectively. The test period extended over 2 to 4 weeks. During this time, the plants were tended and their response to the individual treatments was evaluated. Evaluation was carried out using a scale from 0 to 100. 100 means no emergence of the plants, or complete destruction of at least the above-ground parts, and 0 means no damage or normal course of growth. A good herbicidal activity is given at values of at least 70, and very good herbicidal activity is given at values of at least 85. Post-Emergence Application of Herbicide A-1 (A-1) and Mesotrione (B) in Greenhouse Trials Herbicide A-1 (50 g/l) and mesotrione (480 g/l) were, together with addition of 1 v/v % MSO (methylated sed oil) as adjuvant, formulated in water as distribution medium (water volume 200 l/ha) and sprayed with commercial flat fan nozzles.

Erigeron canadensis = assay: Example 2 post-emergence greenhouse trial, ERICA
Experimental: In the examples below, using the method of S. R. Colby (1967) “Calculating synergistic and antagonistic responses of herbicide combinations”, Weeds 15, p. 22ff., the value E, which is expected if the activity of the individual active compounds is only additive, was calculated: [formula] • where • X=percent activity using active herbicide A at an application rate a; • Y=percent activity using active herbicide B (e.g. mesotrione) at an application rate b; • E=expected activity (in %) by A+B at application rates a+b. If the value found experimentally is higher than the value E calculated according to Colby, a synergistic effect is present. The culture containers used were plastic pots containing loamy sand with approximately 3.0% of humus as substrate. The seeds of the test plants were sown separately for each species. For the post-emergence treatment, the test plants were grown to a plant height of from 3 to 15 cm, depending on the plant habit, and only then treated with the active compounds which had been suspended or emulsified in water. To this end, the test plants were either sown directly, and grown in the same containers, or they were first grown separately as seedlings and transplanted into the test containers a few days prior to treatment. Depending on the species, the plants were kept at 10-25° C. and 20-35° C., respectively. The test period extended over 2 to 4 weeks. During this time, the plants were tended and their response to the individual treatments was evaluated. Evaluation was carried out using a scale from 0 to 100. 100 means no emergence of the plants, or complete destruction of at least the above-ground parts, and 0 means no damage or normal course of growth. A good herbicidal activity is given at values of at least 70, and very good herbicidal activity is given at values of at least 85. Post-Emergence Application of Herbicide A-1 (A-1) and Mesotrione (B) in Greenhouse Trials Herbicide A-1 (342 g/l) and mesotrione (480 g/l) were, together with addition of 0.5 v/v % MSO (methylated sed oil) as adjuvant, formulated in water as distribution medium (water volume 200 l/ha) and sprayed with commercial flat fan nozzles.

Glycine max = assay: Example 3 post-emergence field trial, GLXMA; details: height 7-11 cm
Experimental: (§1) In the examples below, using the method of S. R. Colby (1967) “Calculating synergistic and antagonistic responses of herbicide combinations”, Weeds 15, p. 22ff., the value E, which is expected if the activity of the individual active compounds is only additive, was calculated: [formula] • where • X=percent activity using active herbicide A at an application rate a; • Y=percent activity using active herbicide B (e.g. mesotrione) at an application rate b; • E=expected activity (in %) by A+B at application rates a+b. If the value found experimentally is higher than the value E calculated according to Colby, a synergistic effect is present. Evaluation was carried out using a scale from 0 to 100. 100 means no emergence of the plants, or complete destruction of at least the above-ground parts, and 0 means no damage or normal course of growth. A good herbicidal activity is given at values of at least 70, and very good herbicidal activity is given at values of at least 85. Post-Emergence Application of Herbicide A-1 (A-1) and Mesotrione (B) in Field Trials Herbicide A-1 (342 g/l) and mesotrione (100 g/l) were, together with addition of 0.5 v/v % MSO (methylated sed oil) as adjuvant, formulated in water as distribution medium (water volume 200 l/ha) and sprayed with commercial flat fan nozzles.

Hordeum vulgare = assay: Example 3 post-emergence field trial, HORVX; details: height 20-25 cm
Experimental: as §1

Lolium multiflorum = assay: Example 3 post-emergence field trial, LOLMU; details: height 20-25 cm
Experimental: as §1

[1] = growth stage 19, 7 DAT, g ai/ha: A-1 1, B 50
[2] = growth stage 19, 20 DAT, g ai/ha: A-1 0.5, B 50
[3] = growth stage 19, 20 DAT, g ai/ha: A-1 2, B 50
[4] = 7 DAT, g ai/ha: A-1 12.5, B 105
[5] = 21 DAT, g ai/ha: A-1 12.5, B 105
[6] = 7 DAT, g ai/ha: A-1 12.5, B 210
[7] = 21 DAT, g ai/ha: A-1 12.5, B 210
[8] = 28 DAT, g ai/ha: A-1 12.5, B 105
[9] = 28 DAT, g ai/ha: A-1 12.5, B 210

Row | SMILES | % herbicidal activity (Kochia scoparia; g ai/ha: A-1 0.5, B 62.5) | % herbicidal activity (Kochia scoparia; g ai/ha: A-1 1, B 62.5) | % herbicidal activity (Erigeron canadensis; [1]) | % herbicidal activity (Erigeron canadensis; [2]) | % herbicidal activity (Erigeron canadensis; [3]) | % herbicidal activity (Glycine max; [4]) | % herbicidal activity (Glycine max; 7 DAT, g ai/ha: A-1 18, B 105) | % herbicidal activity (Glycine max; [5]) | % herbicidal activity (Hordeum vulgare; [4]) | % herbicidal activity (Hordeum vulgare; [6]) | % herbicidal activity (Hordeum vulgare; 7 DAT, g ai/ha: A-1 18, B 105) | % herbicidal activity (Hordeum vulgare; 7 DAT, g ai/ha: A-1 18, B 210) | % herbicidal activity (Hordeum vulgare; [5]) | % herbicidal activity (Hordeum vulgare; [7]) | % herbicidal activity (Hordeum vulgare; 21 DAT, g ai/ha: A-1 18, B 105) | % herbicidal activity (Hordeum vulgare; 21 DAT, g ai/ha: A-1 18, B 210) | % herbicidal activity (Hordeum vulgare; [8]) | % herbicidal activity (Hordeum vulgare; [9]) | % herbicidal activity (Hordeum vulgare; 28 DAT, g ai/ha: A-1 18, B 105) | % herbicidal activity (Hordeum vulgare; 28 DAT, g ai/ha: A-1 18, B 210) | further results
1 | CCOC(=O)COc1ccccc1Oc1nc(-n2c(=O)cc(C(F)(F)F)n(C)c2=O)c(F)cc1Cl [A-1, ethyl 2-[2-[[3-chloro-5-fluoro-6-[3-methyl-2,6-dioxo-4-(trifluoromethyl)pyrimidin-1-yl]-2-pyridyl]oxy]phenoxy]acetate] | 65% | 65% | 80% | 70% | 85% | 90% | 90% | 92% | 70% | 60% | 80% | 70% | 70% | 60% | 85% | 70% | 70% | 70% | 90% | 70% | % herbicidal activity A-1 (Hordeum vulgare; 42 DAT, A-1 12.5 g ai/ha): 95%; % herbicidal activity (Lolium multiflorum; [4]): 60%; % herbicidal activity (Lolium multiflorum; [6]): 60%; % herbicidal activity (Lolium multiflorum; 7 DAT, g ai/ha: A-1 18, B 105): 65%; % herbicidal activity (Lolium multiflorum; 7 DAT, g ai/ha: A-1 18, B 210): 70%; % herbicidal activity (Lolium multiflorum; 21 DAT, g ai/ha: A-1 18, B 210): 40%; % herbicidal activity (Lolium multiflorum; 28 DAT, g ai/ha: A-1 18, B 210): 40%
2 | CS(=O)(=O)c1ccc(C(=O)C2C(=O)CCCC2=O)c([N+](=O)[O-])c1 [B, mesotrione] | 75% | 75% | 25% | 80% | 80% | 55% | 55% | 45% | 20% | 0% | 20% | 0% | 20% | 0% | 20% | 0% | 20% | 20% | 20% | 20% | % herbicidal activity B (Hordeum vulgare; 42 DAT, B 210 g ai/ha): 0%; % herbicidal activity (Lolium multiflorum; [4]): 30%; % herbicidal activity (Lolium multiflorum; [6]): 30%; % herbicidal activity (Lolium multiflorum; 7 DAT, g ai/ha: A-1 18, B 105): 30%; % herbicidal activity (Lolium multiflorum; 7 DAT, g ai/ha: A-1 18, B 210): 30%; % herbicidal activity (Lolium multiflorum; 21 DAT, g ai/ha: A-1 18, B 210): 30%; % herbicidal activity (Lolium multiflorum; 28 DAT, g ai/ha: A-1 18, B 210): 30%
